Experimental data published in ChEMBL document CHEMBL5360663, “Discovery of a Novel Photocaged PI3K Inhibitor Capable of Real-Time Reporting of Drug Release” (ACS Med Chem Lett, 2023).
The source made the active and inactive calls. No cut-off for these calls is given here.

Key:
[1] = system: HGC-27; assay: Photorelease activity in human HGC-27 cells assessed as increase in intracellular fluorescence intensity at 0.4 to 10 uM incubated for 2 hrs in presence of UV irradiation for 5 to 30 mins by fluorescence based microplate reader analysis; type: ADME, cell-based; conditions: hgc-27, 2 h, TDE = time-dependent effect, dose 0.4-10 µM
[2] = system: MCF7; assay: Antiproliferative activity against human MCF7 cells assessed as inhibition of cell growth pre-treated with compound followed by UV irradiation for 5 mins measured after 72 hrs by CTG assay; type: functional, cell-based; conditions: MCF7, light or radiation study
[3] = target: Phosphatidylinositol 4,5-bisphosphate 3-kinase catalytic subunit alpha isoform (Homo sapiens, UniProt P42336); assay: Inhibition of PI3Kalpha (unknown origin) using PIP2 as substrate in presence of ATP by Kinase-Glo assay
Phosphatidylinositol 4,5-bisphosphate 3-kinase catalytic subunit alpha isoform, sequence (P42336 whole entry, canonical isoform): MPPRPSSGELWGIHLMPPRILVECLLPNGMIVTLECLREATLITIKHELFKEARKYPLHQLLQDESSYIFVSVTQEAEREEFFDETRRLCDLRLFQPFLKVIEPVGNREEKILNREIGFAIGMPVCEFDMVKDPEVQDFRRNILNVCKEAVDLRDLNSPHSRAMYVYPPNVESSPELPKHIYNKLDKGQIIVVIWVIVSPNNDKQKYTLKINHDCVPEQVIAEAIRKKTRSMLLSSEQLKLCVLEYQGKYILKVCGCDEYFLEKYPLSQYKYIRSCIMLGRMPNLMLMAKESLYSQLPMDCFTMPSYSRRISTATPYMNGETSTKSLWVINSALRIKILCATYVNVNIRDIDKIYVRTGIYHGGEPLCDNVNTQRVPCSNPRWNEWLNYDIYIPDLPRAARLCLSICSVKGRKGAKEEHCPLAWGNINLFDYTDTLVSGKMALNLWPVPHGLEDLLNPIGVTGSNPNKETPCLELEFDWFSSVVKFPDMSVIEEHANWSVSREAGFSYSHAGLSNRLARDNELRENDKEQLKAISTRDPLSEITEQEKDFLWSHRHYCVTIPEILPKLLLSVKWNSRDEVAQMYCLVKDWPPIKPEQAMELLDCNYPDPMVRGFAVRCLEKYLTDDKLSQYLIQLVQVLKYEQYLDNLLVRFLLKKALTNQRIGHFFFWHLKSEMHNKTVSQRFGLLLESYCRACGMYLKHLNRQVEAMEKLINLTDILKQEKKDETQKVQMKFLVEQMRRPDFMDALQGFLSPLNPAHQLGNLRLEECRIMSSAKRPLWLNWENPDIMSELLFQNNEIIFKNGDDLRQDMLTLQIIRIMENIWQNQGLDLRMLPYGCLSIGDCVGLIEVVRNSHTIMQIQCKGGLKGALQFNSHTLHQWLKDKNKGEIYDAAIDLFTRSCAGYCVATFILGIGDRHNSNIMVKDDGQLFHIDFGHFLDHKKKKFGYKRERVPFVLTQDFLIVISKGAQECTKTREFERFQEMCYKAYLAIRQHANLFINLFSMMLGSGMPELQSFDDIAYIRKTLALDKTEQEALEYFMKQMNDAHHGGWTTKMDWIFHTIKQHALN

[4] = Selectivity ratio of IC50 for antiproliferative activity against human MCF7 cells to IC50 for antiproliferative activity against human MCF7 cells in presence of UV irradiation; type: toxicity, cell-based; conditions: read-out: Ratio IC50
[5] = Selectivity ratio of IC50 for antiproliferative activity against human U-87 MG cells to IC50 for antiproliferative activity against human U-87 MG cells in presence of UV irradiation; type: functional, U-87MG ATCC
[6] = system: HGC-27; assay: Photorelease activity in human HGC-27 cells assessed as release of 7-hydroxy-3-(hydroxymethyl)-2H-chromen-2-one incubated for 2 hrs in presence of UV irradiation by confocal microscopic analysis; type: ADME, cell-based; conditions: hgc-27, 2 h, dose 1-10 µM
[7] = system: MCF7; assay: Antiproliferative activity against human MCF7 cells assessed as inhibition of cell growth measured after 72 hrs by CTG assay; type: functional, cell-based; conditions: MCF7, 72 h
[8] = system: SK-MEL-5; assay: Antiproliferative activity against human SK-MEL-5 cells assessed as inhibition of cell growth measured after 72 hrs by CTG assay; type: functional, cell-based; conditions: SK-MEL-5, 72 h
[9] = system: HGC-27; assay: Photorelease activity in human HGC-27 cells assessed as increase in intracellular fluorescence intensity incubated for 2 hrs in presence of UV irradiation for 5 to 30 mins by fluorescence based microplate reader analysis; type: ADME, cell-based; conditions: hgc-27, 2 h, dose 0.4-10 µM
[10] = Selectivity ratio of IC50 for antiproliferative activity against human SK-MEL-5 cells to IC50 for antiproliferative activity against human SK-MEL-5 cells in presence of UV irradiation; type: functional
[11] = system: HGC-27; assay: Photorelease activity in human HGC-27 cells assessed as release of 7-hydroxy-3-(hydroxymethyl)-2H-chromen-2-one incubated for 2 hrs by confocal microscopic analysis; type: ADME, cell-based; conditions: hgc-27, 2 h
[12] = Selectivity ratio of IC50 for antiproliferative activity against human HGC-27 cells to IC50 for antiproliferative activity against human HGC-27 cells in presence of UV irradiation; type: functional
[13] = system: SK-MEL-2; assay: Antiproliferative activity against human SK-MEL-2 cells assessed as inhibition of cell growth pre-treated with compound followed by UV irradiation for 5 mins measured after 72 hrs by CTG assay; type: functional, cell-based; conditions: SK-MEL-2, light or radiation study
[14] = system: U-87 MG; assay: Antiproliferative activity against human U-87 MG cells assessed as inhibition of cell growth pre-treated with compound followed by UV irradiation for 5 mins measured after 72 hrs by CTG assay; type: functional, cell-based, U-87MG ATCC; conditions: light or radiation study
[15] = Selectivity ratio of IC50 for antiproliferative activity against human SK-MEL-2 cells to IC50 for antiproliferative activity against human SK-MEL-2 cells in presence of UV irradiation; type: functional
[16] = system: HGC-27; assay: Antiproliferative activity against human HGC-27 cells assessed as inhibition of cell growth measured after 72 hrs by CTG assay; type: functional, cell-based; conditions: HGC-27, 72 h
[17] = system: SK-MEL-2; assay: Antiproliferative activity against human SK-MEL-2 cells assessed as inhibition of cell growth measured after 72 hrs by CTG assay; type: functional, cell-based; conditions: SK-MEL-2, 72 h
[18] = system: U-87 MG; assay: Antiproliferative activity against human U-87 MG cells assessed as inhibition of cell growth measured after 72 hrs by CTG assay; type: functional, cell-based, U-87MG ATCC
[19] = system: HGC-27; assay: Inhibition of colony formation in human HGC-27 cells at 10 nM pre-treated with compound followed by UV irradiation for 5 mins measured after 3 days by crystal violet staining based analysis; type: functional, cell-based; conditions: time 4325.0 min
[20] = system: HGC-27; assay: Inhibition of PI3K in human HGC-27 cells assessed as reduction in S6RP phosphorylation at S240 and 244 residue at 10 nM pre-treated with compound followed by UV irradiation for 5 mins measured after 24 hrs by Western blotting analysis; type: cell-based; conditions: time 1445.0 min
[21] = system: SK-MEL-5; assay: Antiproliferative activity against human SK-MEL-5 cells assessed as inhibition of cell growth pre-treated with compound followed by UV irradiation for 5 mins measured after 72 hrs by CTG assay; type: functional, cell-based; conditions: SK-MEL-5, light or radiation study
[22] = Selectivity ratio of IC50 for antiproliferative activity against human U373 cells to IC50 for antiproliferative activity against human U373 cells in presence of UV irradiation; type: functional
[23] = system: HGC-27; assay: Inhibition of PI3K in human HGC-27 cells assessed as reduction in AKT phosphorylation at S473 residue at 10 nM pre-treated with compound followed by UV irradiation for 5 mins measured after 24 hrs by Western blotting analysis; type: cell-based; conditions: time 1445.0 min
[24] = system: HGC-27; assay: Antiproliferative activity against human HGC-27 cells assessed as inhibition of cell growth pre-treated with compound followed by UV irradiation for 5 mins measured after 72 hrs by CTG assay; type: functional, cell-based; conditions: HGC-27, light or radiation study
[25] = Antiproliferative activity against human U373 cells assessed as inhibition of cell growth pre-treated with compound followed by UV irradiation for 5 mins measured after 72 hrs by CTG assay; type: functional, cell-based; conditions: U373 MG, light or radiation study
[26] = Antiproliferative activity against human U373 cells assessed as inhibition of cell growth measured after 72 hrs by CTG assay; type: functional, cell-based; conditions: U373 MG

## COc1cc(COc2ccc3cc(CN(c4cc(-c5cc(OC6CCOCC6)c6ncnc(C)c6c5)cnc4OC)S(=O)(=O)c4ccc(F)cc4F)c(=O)oc3c2)c([N+](=O)[O-])cc1OC
[1]
  Activity: Tde
[2]
  IC50: 0.428 µM
[3]
  IC50: 0.0189 µM
[4]
  selectivity ratio: > 23
[5]
  Ratio IC50: 63
[6]
  Activity: Dose-Dependent Effect
[7]
  IC50: > 10 µM
[8]
  IC50: 6.56 µM
[9]
  Activity: Dose-Dependent Effect
[10]
  Ratio IC50: 15
[11]
  Activity: Not Active
[12]
  Ratio IC50: 189
[13]
  IC50: 0.143 µM
[14]
  IC50: 0.052 µM
[15]
  Ratio IC50: 20
[16]
  IC50: 0.701 µM
[17]
  IC50: 2.81 µM
[18]
  IC50: 3.26 µM
[19]
  Activity: Active
[20]
  inhibition: Active
[21]
  IC50: 0.434 µM
[22]
  Ratio IC50: >217
[23]
  inhibition: Active
[24]
  IC50: 0.0037 µM
[25]
  IC50: 0.046 µM
[26]
  IC50: > 10 µM

## COc1ncc(-c2cc(OC3CCOCC3)c3ncnc(C)c3c2)cc1NS(=O)(=O)c1ccc(F)cc1F
[3]
  IC50: 0.00017 µM
[7]
  IC50: 0.282 µM
[8]
  IC50: 0.065 µM
[16]
  IC50: 0.0018 µM
[17]
  IC50: 0.19 µM
[18]
  IC50: 0.05 µM
[19]
  Activity: Active
[20]
  inhibition: Active
[23]
  inhibition: Active
[26]
  IC50: 0.057 µM

## COc1ncc(-c2cc(OC3CCOCC3)c3ncnc(C)c3c2)cc1N(Cc1cc2ccc(O)cc2oc1=O)S(=O)(=O)c1ccc(F)cc1F
[3]
  IC50: 0.00207 µM
[7]
  IC50: 0.295 µM
[8]
  IC50: 0.19 µM
[16]
  IC50: 0.0039 µM
[17]
  IC50: 0.13 µM
[18]
  IC50: 0.011 µM
[19]
  Activity: Active
[20]
  inhibition: Active
[23]
  inhibition: Active
[26]
  IC50: 0.025 µM
